± gives the standard error.
What was measured:
[1] = test system: 621-103 (TSC2-rescued); experiment: relative viability vs DMSO; higher = less cytotoxic; settings: serum: 10% FBS, 72 h
[2] = test system: 621-102 (TSC2-deficient); experiment: as above; settings: serum: 10% FBS, 72 h
[3] = test system: UMB1949 (TSC2-deficient); experiment: relative viability vs DMSO (fraction); higher = less cytotoxic; settings: serum: 0.1% FBS, 72 h;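 further: renal angiomyolipoma cell lines screened in 384-well plates, viability normalized per plate to DMSO-treated cells, each plate carrying 50 nM rapamycin and 1 µM staurosporine controls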
[4] = test system: 621-102 (TSC2-deficient); experiment: as above; settings: serum: 0.1% FBS, 72 h

Structure (SMILES): CCN1CCN(Cc2ccc(-c3cc4c(N[C@H](C)c5ccccc5)ncnc4[nH]3)cc2)CC1 [AEE788]
- relative viability ([1]; 0.0001 µM): 94.8 ± 1.2%
- relative viability ([1]; 0.001 µM): 107.1 ± 0.38%
- relative viability ([1]; 0.01 µM): 103.4 ± 0.79%
- relative viability ([1]; 0.1 µM): 102 ± 3.6%
- relative viability ([1]; 1 µM): 100 ± 3.8%
- relative viability ([1]; 10 µM): 10.7 ± 1%
- relative viability ([2]; 0.0001 µM): 106 ± 2.1%
- relative viability ([2]; 0.001 µM): 107.3 ± 1%
- relative viability ([2]; 0.01 µM): 106 ± 4.4%
- relative viability ([2]; 0.1 µM): 104 ± 1.6%
- relative viability ([2]; 1 µM): 100 ± 3.6%
- relative viability ([2]; 10 µM): 36.7 ± 12%
- relative viability ([3]; 0.0128 nM): 1.02
- relative viability ([3]; 0.064 nM): 0.971
- relative viability ([3]; 0.32 nM): 1
- relative viability ([3]; 1.6 nM): 1.07
- relative viability ([3]; 8 nM): 0.964
- relative viability ([3]; 40 nM): 1.01
- relative viability ([3]; 200 nM): 0.767
- relative viability ([3]; 1000 nM): 0.305
- relative viability ([3]; 5000 nM): 0.00689
- relative viability ([4]; 0.0128 nM): 1.06
- relative viability ([4]; 0.064 nM): 0.968
- relative viability ([4]; 0.32 nM): 1.01
- relative viability ([4]; 1.6 nM): 0.786
- relative viability ([4]; 8 nM): 0.612
- relative viability ([4]; 40 nM): 0.64
- relative viability ([4]; 200 nM): 0.156
- relative viability ([4]; 1000 nM): 0.034
- relative viability ([4]; 5000 nM): 0.00903

Structure (SMILES): O=C(Nc1c[nH]nc1-c1nc2ccc(CN3CCOCC3)cc2[nH]1)NC1CC1 [AT9283]
- relative viability ([1]; 0.0001 µM): 73 ± 1.1%
- relative viability ([1]; 0.001 µM): 89.4 ± 2.2%
- relative viability ([1]; 0.01 µM): 81.5 ± 2.2%
- relative viability ([1]; 0.1 µM): 71.4 ± 2.8%
- relative viability ([1]; 1 µM): 31.5 ± 3.9%
- relative viability ([1]; 10 µM): 14.6 ± 0.54%
- relative viability ([2]; 0.0001 µM): 94.6 ± 1.6%
- relative viability ([2]; 0.001 µM): 103.4 ± 0.37%
- relative viability ([2]; 0.01 µM): 106 ± 1.6%
- relative viability ([2]; 0.1 µM): 85.8 ± 4.9%
- relative viability ([2]; 1 µM): 53.12 ± 0.43%
- relative viability ([2]; 10 µM): 15.2 ± 1.2%
- relative viability ([3]; 0.0128 nM): 1.11
- relative viability ([3]; 0.064 nM): 1.02
- relative viability ([3]; 0.32 nM): 0.973
- relative viability ([3]; 1.6 nM): 0.996
- relative viability ([3]; 8 nM): 0.963
- relative viability ([3]; 40 nM): 0.0359
- relative viability ([3]; 200 nM): 0.0512
- relative viability ([3]; 1000 nM): 0.00329
- relative viability ([3]; 5000 nM): 0.00115
- relative viability ([4]; 0.0128 nM): 1.09
- relative viability ([4]; 0.064 nM): 0.98
- relative viability ([4]; 0.32 nM): 0.952
- relative viability ([4]; 1.6 nM): 0.945
- relative viability ([4]; 8 nM): 0.718
- relative viability ([4]; 40 nM): 0.031
- relative viability ([4]; 200 nM): 0.0179
- relative viability ([4]; 1000 nM): 0.00825
- relative viability ([4]; 5000 nM): 0.00249
